Experimental data reported in paper PMC6099728, “Investigation of Hydro-Lipophilic Properties of N-Alkoxyphenylhydroxynaphthalenecarboxamides” (Molecules : A Journal of Synthetic Chemistry and Natural …, 2018).

Test: Lipophilicity determination by RP-HPLC (capacity factor k / logk)
Assay type: physicochemical
Details: for logk: isocratic MeOH 72%/H2O 28%, C18 column, 40 °C; for πB (distributive parameter π calculated from logk) / πA (distributive parameter π calculated from logk) / πC (distributive parameter π calculated from logk): π = logkS − logkU; for πB (distributive parameter π calculated from logk): unsubstituted 1b as reference; for πA (distributive parameter π calculated from logk): unsubstituted 1a as reference; for πC (distributive parameter π calculated from logk): unsubstituted 1c as reference
From the text: A HPLC separation module Waters Alliance 2695 XE equipped with a Waters Dual Absorbance Detector 2486 (Waters Corp., Milford, MA, USA) was used. A chromatographic column Symmetry® C18 5 µm, 4.6 × 250 mm, Part No. W21751W016 (Waters Corp.) was used. The HPLC separation process was monitored by Empower® 3 Chromatography Manager Software (Waters Corp.). Isocratic elution by a mixture of MeOH p.a. (72%) and H2O-HPLC Mili-Q grade (28%) as a mobile phase was used. The total flow of the column was 1.0 mL/min, the injection was 20 μL, the column temperature was 40 °C, and the sample temperature was 10 °C. A detection wavelength of 210 nm was chosen. The KI methanolic solution was used for the determination of dead time (tD). Retention times (tR) were measured in minutes. Capacity factors k were calculated using the Empower® 3 Chromatography Manager Software according to the formula k = (tR − tD)/tD, where tR is the retention time of the solute, while tD is the dead time obtained using an unretained analyte. Each experiment was repeated three times. Logk, which was calculated from the capacity factor k, is used as the lipophilicity index converted to the logP scale.

| SMILES | logk (series B) | πB (distributive parameter π calculated from logk) (series B) | logk (series A) | πA (distributive parameter π calculated from logk) (series A) | logk (series C) | πC (distributive parameter π calculated from logk) (series C) |
| --- | --- | --- | --- | --- | --- | --- |
| O=C(Nc1ccccc1)c1ccc2ccccc2c1O [1b] | 0.6755 | 0 |  |  |  |  |
| COc1cccc(NC(=O)c2c(O)ccc3ccccc23)c1 [3c] |  |  |  |  | 0.1106 | 0.02 |
| COc1cccc(NC(=O)c2ccc3ccccc3c2O)c1 [3b] | 0.6828 | 0.04 |  |  |  |  |
| COc1cccc(NC(=O)c2cc3ccccc3cc2O)c1 [3a] |  |  | 0.4055 | 0.04 |  |  |
| COc1ccccc1NC(=O)c1cc2ccccc2cc1O [2a] |  |  | 0.3982 | 0.09 |  |  |
| O=C(Nc1ccccc1)c1c(O)ccc2ccccc12 [1c] |  |  |  |  | −0.0581 | 0 |
| CCOc1cccc(NC(=O)c2cc3ccccc3cc2O)c1 [6a] |  |  | 0.5682 | 0.36 |  |  |
| CCOc1cccc(NC(=O)c2ccc3ccccc3c2O)c1 [6b] | 0.8353 | 0.36 |  |  |  |  |
| CCOc1ccccc1NC(=O)c1ccc2ccccc2c1O [5b] | 1.0940 | 0.40 |  |  |  |  |
| COc1ccccc1NC(=O)c1ccc2ccccc2c1O [2b] | 0.8593 | 0.09 |  |  |  |  |
| COc1ccc(NC(=O)c2cc3ccccc3cc2O)cc1 [4a] |  |  | 0.3374 | −0.15 |  |  |
| CCOc1ccccc1NC(=O)c1cc2ccccc2cc1O [5a] |  |  | 0.5570 | 0.40 |  |  |
| O=C(Nc1ccccc1)c1cc2ccccc2cc1O [1a] |  |  | 0.3927 | 0 |  |  |
| CCOc1ccccc1NC(=O)c1c(O)ccc2ccccc12 [5c] |  |  |  |  | 0.4759 | 0.39 |
| COc1ccc(NC(=O)c2c(O)ccc3ccccc23)cc1 [4c] |  |  |  |  | −0.1149 | −0.19 |
| CCOc1cccc(NC(=O)c2c(O)ccc3ccccc23)c1 [6c] |  |  |  |  | 0.1175 | 0.34 |
| COc1ccccc1NC(=O)c1c(O)ccc2ccccc12 [2c] |  |  |  |  | 0.2518 | 0.05 |
| COc1ccc(NC(=O)c2ccc3ccccc3c2O)cc1 [4b] | 0.6239 | −0.15 |  |  |  |  |

Next, values leading:

| logk (series B) | πB (distributive parameter π calculated from logk) (series B) | logk (series A) | πA (distributive parameter π calculated from logk) (series A) | logk (series C) | πC (distributive parameter π calculated from logk) (series C) | SMILES |
| --- | --- | --- | --- | --- | --- | --- |
| 0.8648 | 0.59 |  |  |  |  | CC(C)Oc1ccc(NC(=O)c2ccc3ccccc3c2O)cc1 [16b] |
|  |  | 0.8670 | 0.95 |  |  | CCC(C)Oc1cccc(NC(=O)c2cc3ccccc3cc2O)c1 (stereo not drawn) [18a] |
|  |  |  |  | 0.7927 | 0.98 | CCC(C)Oc1ccccc1NC(=O)c1c(O)ccc2ccccc12 (stereo not drawn) [17c] |
|  |  |  |  | 0.1619 | 0.55 | CC(C)Oc1ccc(NC(=O)c2c(O)ccc3ccccc23)cc1 [16c] |
|  |  |  |  | 0.2214 | 0.57 | CC(C)Oc1cccc(NC(=O)c2c(O)ccc3ccccc23)c1 [15c] |
|  |  |  |  | 0.4129 | 0.91 | CCC(C)Oc1cccc(NC(=O)c2c(O)ccc3ccccc23)c1 (stereo not drawn) [18c] |
|  |  |  |  | 0.4604 | 1.05 | CCCCOc1ccc(NC(=O)c2c(O)ccc3ccccc23)cc1 [13c] |
|  |  | 0.7221 | 0.74 |  |  | CCCOc1ccccc1NC(=O)c1cc2ccccc2cc1O [8a] |
|  |  | 0.4916 | 0.15 |  |  | CCOc1ccc(NC(=O)c2cc3ccccc3cc2O)cc1 [7a] |
|  |  | 0.9136 | 1.08 |  |  | CCCCOc1ccccc1NC(=O)c1cc2ccccc2cc1O [11a] |
| 1.2088 | 1.02 |  |  |  |  | CCCCOc1cccc(NC(=O)c2ccc3ccccc3c2O)c1 [12b] |
| 1.3103 | 0.74 |  |  |  |  | CCCOc1ccccc1NC(=O)c1ccc2ccccc2c1O [8b] |
|  |  | 0.7977 | 0.09 |  |  | CCC(C)Oc1ccc(NC(=O)c2cc3ccccc3cc2O)cc1 (stereo not drawn) [19a] |
| 0.7700 | 0.15 |  |  |  |  | CCOc1ccc(NC(=O)c2ccc3ccccc3c2O)cc1 [7b] |
| 1.1291 | 0.95 |  |  |  |  | CCC(C)Oc1cccc(NC(=O)c2ccc3ccccc3c2O)c1 (stereo not drawn) [18b] |
|  |  |  |  | 0.3621 | 0.91 | CCC(C)Oc1ccc(NC(=O)c2c(O)ccc3ccccc23)cc1 (stereo not drawn) [19c] |
| 1.2556 | 0.66 |  |  |  |  | CC(C)Oc1ccccc1NC(=O)c1ccc2ccccc2c1O [14b] |
|  |  |  |  | 0.0542 | 0.27 | CCOc1ccc(NC(=O)c2c(O)ccc3ccccc23)cc1 [7c] |
|  |  | 0.6723 | 0.61 |  |  | CC(C)Oc1cccc(NC(=O)c2cc3ccccc3cc2O)c1 [15a] |
|  |  |  |  | 0.3209 | 0.65 | CCCOc1cccc(NC(=O)c2c(O)ccc3ccccc23)c1 [9c] |

| logk (series B) | πB (distributive parameter π calculated from logk) (series B) | logk (series A) | πA (distributive parameter π calculated from logk) (series A) | logk (series C) | πC (distributive parameter π calculated from logk) (series C) | SMILES |
| --- | --- | --- | --- | --- | --- | --- |
|  |  |  |  | 0.8578 | 1.04 | CCCCOc1ccccc1NC(=O)c1c(O)ccc2ccccc12 [11c] |
|  |  |  |  | 0.5161 | 1.00 | CCCCOc1cccc(NC(=O)c2c(O)ccc3ccccc23)c1 [12c] |
|  |  | 0.6360 | 0.66 |  |  | CC(C)Oc1ccccc1NC(=O)c1cc2ccccc2cc1O [14a] |
| 0.9355 | 0.61 |  |  |  |  | CC(C)Oc1cccc(NC(=O)c2ccc3ccccc3c2O)c1 [15b] |
|  |  | 0.8961 | 1.08 |  |  | CCCCOc1ccc(NC(=O)c2cc3ccccc3cc2O)cc1 [13a] |
| 1.1537 | 1.08 |  |  |  |  | CCCCOc1ccc(NC(=O)c2ccc3ccccc3c2O)cc1 [13b] |
| 1.0518 | 0.94 |  |  |  |  | CCC(C)Oc1ccc(NC(=O)c2ccc3ccccc3c2O)cc1 (stereo not drawn) [19b] |
|  |  | 0.6963 | 0.75 |  |  | CCCOc1ccc(NC(=O)c2cc3ccccc3cc2O)cc1 [10a] |
|  |  | 0.7672 | 0.69 |  |  | CCCOc1cccc(NC(=O)c2cc3ccccc3cc2O)c1 [9a] |
|  |  |  |  | 0.2622 | 0.72 | CCCOc1ccc(NC(=O)c2c(O)ccc3ccccc23)cc1 [10c] |
| 1.4424 | 1.00 |  |  |  |  | CCC(C)Oc1ccccc1NC(=O)c1ccc2ccccc2c1O (stereo not drawn) [17b] |
|  |  |  |  | 0.6639 | 0.73 | CCCOc1ccccc1NC(=O)c1c(O)ccc2ccccc12 [8c] |
|  |  |  |  | 0.6145 | 0.66 | CC(C)Oc1ccccc1NC(=O)c1c(O)ccc2ccccc12 [14c] |
| 1.0215 | 0.69 |  |  |  |  | CCCOc1cccc(NC(=O)c2ccc3ccccc3c2O)c1 [9b] |
|  |  | 0.6017 | 0.59 |  |  | CC(C)Oc1ccc(NC(=O)c2cc3ccccc3cc2O)cc1 [16a] |
|  |  | 0.7956 | 1.00 |  |  | CCC(C)Oc1ccccc1NC(=O)c1cc2ccccc2cc1O (stereo not drawn) [17a] |
|  |  | 0.9711 | 1.02 |  |  | CCCCOc1cccc(NC(=O)c2cc3ccccc3cc2O)c1 [12a] |
| 1.5122 | 1.08 |  |  |  |  | CCCCOc1ccccc1NC(=O)c1ccc2ccccc2c1O [11b] |
| 0.9588 | 0.75 |  |  |  |  | CCCOc1ccc(NC(=O)c2ccc3ccccc3c2O)cc1 [10b] |
